Patent US8946478B2, “Benzamide derivative with anticancer activity and preparation method and use thereof” (Zhejiang Hisun Pharmaceutical Co., Ltd., priority 2010, dated 2015)

Experiments:
[1] = system: human breast cancer cell strain MDA-MB435 xenograft; experiment: Human cancer xenograft tumor model in nude mouse; assay type: in vivo, BALB/C nude mice; details: MDA-MB-435 model, 21 d, intraperitoneal once a day, T/C < 60% = effective
Text: (§1) 5-6 week old female or male BALB/C nude mice, about 18-20 g in weight, were raised. Human cancer xenograft tumor model in nude mouse was established by the following steps: human colon cancer cell strains HCT-116 and Colo205, human breast cancer cell strain MDA-MB435, human prostate cancer cell strain BXPC-3, human ovarian cancer cell strain SKOV-3, human lung cancer cell strain A549, human pancreatic cancer cell strain PANC-1, and human uterine cancer cell strain Hela were all obtained from ATCC. Each cell strain was cultured, and monolayer of cultured tumor cells were digested off the walls, collected and resuspended in serum-free culture medium, and adjusted to a concentration of 2×10^6/0.2 mL, which was then brought to the animal room in an ice box. 0.2 mL cell suspension was drawn directly by a syringe with […] and subcutaneously transplanted into the scapula part of the rear part of nude mouse's left armpit, 2×10^6/0.2 mL for each mouse, and the tumor volume was measured every 2-3 days. After two weeks, tumor was removed under sterile conditions from tumor-bearing nude mice with vigorous tumor growth and without diabrosis. The tumor tissue was cut into pieces of about 2˜3 mm and inoculated subcutaneously into the scapula part of the rear part of nude mouse's left armpit. After three passages, when the tumor volume reached 100 mm^3, the nude mice with too large or too small tumors were eliminated and the rest were randomly divided into groups for the administration.
(§2) The mice were randomly divided into 5 groups, including negative control group (solvent), positive control group (BSI-201, 80 mg/kg), and three treatment groups with high, middle and low doses (40 mg/kg, 30 mg/kg, and 20 mg/kg respectively, wherein the high dose was below the MTD), and there were 8 nude mice in each group except that there are 16 ones in the negative control group. They were administered by intraperitoneal injection once a day for 3 consecutive weeks, during which body weight and tumor volume of the animals were detected and the death number of animals was recorded every 2 days. The animals were sacrificed 24 hours after the last administration, and the volume sizes of tumor, tumor weight, and body weight of nude mice were measured; growth curves of tumor volume, growth curves of body weight of nude mice and tumor inhibition rate, animal mortality were plotted, and relative tumor proliferation rate T/C (%) was calculated according to the equation T/C (%)=TRTV/CRTV*100%. (TRTV: RTV of the treatment group; CRTV: RTV of the negative control group, relative tumor volume RTV=Vt/V0, wherein V0 is the tumor volume when the mice were divided into groups for administration, Vt is the tumor volume after the administration).

[2] = system: human colon cancer cell strain Colo205 xenograft; experiment: Human cancer xenograft tumor model in nude mouse; assay type: in vivo, BALB/C nude mice; details: Colo-205 model, 21 d, intraperitoneal once a day, T/C < 60% = effective
Text: as §1, §2

[3] = system: human colon cancer cell strain HCT-116 xenograft; experiment: Human cancer xenograft tumor model in nude mouse; assay type: in vivo, BALB/C nude mice; details: HCT-116 model, 21 d, intraperitoneal once a day, T/C < 60% = effective
Text: as §1, §2

[4] = system: human lung cancer cell strain A549 xenograft; experiment: Human cancer xenograft tumor model in nude mouse; assay type: in vivo, BALB/C nude mice; details: 21 d, intraperitoneal once a day, T/C < 60% = effective
Text: as §1, §2

[5] = system: human ovarian cancer cell strain SKOV-3 xenograft; experiment: Human cancer xenograft tumor model in nude mouse; assay type: in vivo, BALB/C nude mice; details: SKOV-3 model, 21 d, intraperitoneal once a day, T/C < 60% = effective
Text: as §1, §2

[6] = system: human pancreatic cancer cell strain PANC-1 xenograft; experiment: Human cancer xenograft tumor model in nude mouse; assay type: in vivo, BALB/C nude mice; details: PANC-1 model, 21 d, intraperitoneal once a day, T/C < 60% = effective
Text: as §1, §2

[7] = system: human prostate cancer cell strain BXPC-3 xenograft; experiment: Human cancer xenograft tumor model in nude mouse; assay type: in vivo, BALB/C nude mice; details: BXPC-3 model, 22 d, intraperitoneal once a day, T/C < 60% = effective
Text: as §1, §2

[8] = system: human uterine cancer cell strain Hela xenograft; experiment: Human cancer xenograft tumor model in nude mouse; assay type: in vivo, BALB/C nude mice; details: 21 d, intraperitoneal once a day, T/C < 60% = effective
Text: as §1, §2

[9] = system: human cancer xenograft tumor models; experiment: In vivo efficacy screening, summary over the xenograft models; parameters: species or system BALB/C nude mice; details: 30 mg/kg I-1 against 80 mg/kg BSI-201, nude mouse xenografts
Text: 5-6 week old female or male BALB/C nude mice, about 18-20 g in weight, were raised. Human cancer xenograft tumor model in nude mouse was established by the following steps: human colon cancer cell strains HCT-116 and Colo205, human breast cancer cell strain MDA-MB435, human prostate cancer cell strain BXPC-3, human ovarian cancer cell strain SKOV-3, human lung cancer cell strain A549, human pancreatic cancer cell strain PANC-1, and human uterine cancer cell strain Hela were all obtained from ATCC. […] 0.2 mL cell suspension was drawn directly by a syringe with […] and subcutaneously transplanted into the scapula part of the rear part of nude mouse's left armpit, 2×10^6/0.2 mL for each mouse, and the tumor volume was measured every 2-3 days. […]
The mice were randomly divided into 5 groups, including negative control group (solvent), positive control group (BSI-201, 80 mg/kg), and three treatment groups with high, middle and low doses (40 mg/kg, 30 mg/kg, and 20 mg/kg respectively, wherein the high dose was below the MTD), and there were 8 nude mice in each group except that there are 16 ones in the negative control group. They were administered by intraperitoneal injection once a day for 3 consecutive weeks, during which body weight and tumor volume of the animals were detected and the death number of animals was recorded every 2 days. […]

Row | SMILES | Relative tumor proliferation rate T/C (%) ([1]; 30 mg/kg) | Relative tumor proliferation rate T/C (%) ([2]; 30 mg/kg) | Relative tumor proliferation rate T/C (%) ([3]; 30 mg/kg) | Relative tumor proliferation rate T/C (%) ([4]; 30 mg/kg) | Relative tumor proliferation rate T/C (%) ([5]; 30 mg/kg) | Relative tumor proliferation rate T/C (%) ([6]; 30 mg/kg) | Relative tumor proliferation rate T/C (%) ([7]; 30 mg/kg) | Relative tumor proliferation rate T/C (%) ([8]; 30 mg/kg) | in vivo efficacy compared with BSI-201 (in words) [9] | Relative tumor proliferation rate T/C (%) ([1]; 80 mg/kg) | Relative tumor proliferation rate T/C (%) ([2]; 80 mg/kg) | Relative tumor proliferation rate T/C (%) ([3]; 80 mg/kg) | Relative tumor proliferation rate T/C (%) ([4]; 80 mg/kg) | Relative tumor proliferation rate T/C (%) ([5]; 80 mg/kg) | Relative tumor proliferation rate T/C (%) ([6]; 80 mg/kg) | Relative tumor proliferation rate T/C (%) ([7]; 80 mg/kg) | Relative tumor proliferation rate T/C (%) ([8]; 80 mg/kg)
1 | C#Cc1ccc(C(N)=O)cc1[N+](=O)[O-] [Compound I-1, 4-ethynyl-3-nitrobenzamide] | 40%(30, 21) | 42%(30, 21) | 52%(30, 21) | 40%(30, 21) | 45%(30, 21) | 40%(30, 21) | 43%(30, 22) | 50%(30, 21) | equivalent efficacy to that of 80 mg/kg BSI-201 | – | – | – | – | – | – | – | –
2 | NC(=O)c1ccc(I)c([N+](=O)[O-])c1 [BSI-201, 4-iodo-3-nitrobenzamide, reference compound] | – | – | – | – | – | – | – | – | – | 44%(80, 21) | 50%(80, 21) | 54%(80, 21) | 42%(80, 21) | 41%(80, 21) | 45%(80, 21) | 48%(80, 22) | 48%(80, 21)
